EP3502109A1, “TRIAZOLE-PHENYL-THIAZOLE HETEROCYCLES AS INNOVATIVE INHIBITORS OF TRYPANOTHIONE REDUCTASE AND THEIR USE AS LEISHMANICIDES” (Consejo Superior De Investigaciones Científicas, priority 2017, dated 2019)
Counter-ions that a name gives are not always drawn.

Legend:
recombinant Li-TryR = recombinant Li-TryR (Leishmania infantum, UniProt A4HSF7); test: Li-TryR oxidoreductase activity assay; type: biochemical
Experimental: Oxidoreductase activity was determined according to the method described by Hamilton et al. (Biochem. J., 2003, 369, 529-537). Briefly, reactions were carried out at 26 °C (250 µL) of HEPES pH 8.0 (40 mM) buffer containing EDTA (1 mM), NADPH (150 µM), NADP+ (30 µM), DTNB (25 µM), T[S]2 (1 µM), glicerol (0.02%), DMSO (1.5%) and recombinant Li-TryR (7 nM). […] Enzyme activity was monitored by the increase in absorbance at 412 nm for 1 h at 26 °C in a VERSAmax microplate reader (Molecular Devices, California, USA). All the assays were conducted in triplicate in at least three independent experiments. Data were analyzed using a non-linear regression model with the Grafit6 software (Erithacus, Horley, Surrey, UK).

[1] = tested on: L. infantum intracellular amastigotes; test: Leishmania infection assay (intracellular amastigotes in THP-1 macrophages); type: cell-based; details: THP-1, 48 h
Experimental: Human THP-1 monocytic cells were seeded at 1.2 x 10^5 cells/ml in 24-multidish plates (Nunc, Roskilde, Denmark) and differentiated to macrophages for 24 h in 1 ml of RPMI 1640 medium containing 10 ng/ml of phorbol 12-myristate 13-acetate (PMA) (Sigma-Aldrich, St. Louis, MO). Medium culture was removed, and 1.2 x 10^6 Leishmania amastigotes in 1 ml of THP-1 medium were added to each well. Four hours later, the medium with non-infective amastigotes was completely removed, washed 3 times with 1 phosphate-buffered saline (PBS), and replaced with new THP-1 medium and the corresponding treatment. After 48 h of treatment, medium was removed; THP-1 cells were washed 3 times with 1xPBS and detached with TrypLE Express (Invitrogen, Leiden, The Netherlands) according to the manufacturer's indications. Infection quantification was measured by flow cytometry. Drug concentrations ranged from 0.2 µM to 25 µM.

[2] = tested on: L. infantum promastigotes; test: Leishmanicidal activity on promastigotes (PI exclusion, flow cytometry); type: cell-based; details: Leishmania infantum, 24 h
Experimental: L. infantum promastigotes (MCAN/ES/ 89/IPZ229/1/89) were grown in RPMI-1640 medium (Sigma-Aldrich, St. Louis, MO, USA) supplemented with 10% heat-inactivated fetal calf serum (FCS), antibiotics, and 25 mm HEPES (pH 7.2) at 26 °C.
(§1) Drug treatment of amastigotes was performed during the logarithmic growth phase at a concentration of 1×10^6 parasites/mL at 37 °C for 24 h. Drug treatment of promastigotes was performed during the logarithmic growth phase at a concentration of 2×10^6 parasites/mL at 26 °C for 24 h. The percentage of living cells was evaluated by flow cytometry by the propidium iodide (PI) exclusion method.^17 Drug concentrations ranged from 0.2 µM to 25 µM.

Li-TryR dimeric form [3] = biological target: T1, Li-TryR dimeric form (Leishmania infantum, UniProt A4HSF7); test: Dimer quantitation assay (ELISA), Li-TryR monomer displacement; type: binding
Experimental: The stability of the Li-TryR dimeric form in the presence of the compounds was evaluated using an Enzyme-Linked ImmunoSorbent Assay (ELISA). Briefly a dual (HIS/FLAG) tagged Li-TryR (400 nM) was incubated in a dimerization buffer (200 µL 300 mM NaCl, 50 mM Tris pH 8.0) for 16 h at 37 °C with agitation and in a humid atmosphere in the presence of different peptide concentration (10 to 90 µM) in 1.5ml tubes. Next, the tubes were centrifuged at 30000 rcf and supernatants were disposed in anti-flag coated 96 well plates and incubated 30 min, at 37°C with gentle shaking. Then the plates were washed ten times with TTBS (Tween 0.1%, 2 mM Tris, 138 mM NaCl 138 pH 7.6) and incubated with diluted monoclonal α-HIS HRP conjugated antibody (200 µL, Abcam, Cambridge, UK) in BSA (5%) in TTBS for 1 h at room temperature. The plates were washed once again as previously described and 1,2-phenylenediamine dihydrochloride (OPD) substrate (100 µL, Dako, Glostrup, Denmark) prepared according to manufacturer's instructions was added. The enzymatic reaction was stopped after 10 min with H2SO4 (100 µL, 0.5 M) and the absorbances were measured at 490 nm in a VERSAmax microplate reader (Molecular Devices, California, USA). All the assays were conducted in triplicate in at least three independent experiments. Data were analyzed using a non-linear regression model with the Grafit6 software (Erithacus, Horley, Surrey, UK). Table 1. IC50 ± SEM values for target compounds of formula I-A and I-B in the oxidoreductase activity assays and in the Li-TryR monomer displacement

[4] = tested on: macrophage-differentiated THP-1 monocytes; test: Cytotoxicity assay, macrophage-differentiated THP-1 (crystal violet); type: cell-based; details: Homo sapiens, THP-1, 24 h; read-out: EC50 (µM) THP-1 dif
Experimental: (§2) Human THP-1 monocytic cells were seeded at 1.2 x 10^5 cells/ml in 24-multidish plates (Nunc, Roskilde, Denmark) and differentiated to macrophages for 24 h in 1 ml of RPMI 1640 medium containing 10 ng/ml of phorbol 12-myristate 13-acetate (PMA) (Sigma-Aldrich, St. Louis, MO). Human HepG2 cells were seeded at 8 x 10^5 cells/ml in 24-multidish plates (Nunc, Roskilde, Denmark). After 24 h of drug treatment, both cell lines were washed with PBS and stained with violet crystal solution (0.2% in 2% ethanol) in for 10 min. at room temperature. After dye removal, cells were washed twice with water. Once dried, the wells were treated with 1% SDS for 30 min and the absorbance at 570nm was monitored in a plate reader. Table 2. EC50± SEM values for the compounds of formula I-A and I-B on L. infantum promastigotes, extracellular and intracellular amastigotes and cytotoxic activity in macrophage-differentiated THP-1 monocytes and HepG2 cell lines

[5] = tested on: L. infantum axenic amastigotes; test: Leishmanicidal activity on axenic amastigotes (PI exclusion, flow cytometry); type: cell-based; details: Leishmania infantum, 24 h
Experimental: L. infantum axenic amastigotes were grown in M199 (Invitrogen, Leiden, The Netherlands) medium supplemented with 10% heat inactivated FCS, 1 g/L β-alanine, 100 mg/L L-asparagine, 200 mg/L sacarose, 50 mg/L sodium pyruvate, 320 mg/L malic acid, 40 mg/L fumaric acid, 70 mg/L succinic acid, 200 mg/L α-ketoglutaric acid, 300 mg/L citric acid, 1.1 g/L sodium bicarbonate, 5 g/L MES, 0.4 mg/L hemin, 10 mg/L gentamicine pH 5.4 at 37 °C. THP-1 cells were grown in RPMI-1640 medium (Gibco, Leiden, The Netherlands) supplemented with 10% heat inactivated FCS, antibiotics, 1 mM HEPES, 2 mM glutamine and 1 mM sodium pyruvate, pH 7.2 at 37 °C and 5% CO2.
as §1

HepG2 cells = test: Cytotoxicity assay, HepG2 (crystal violet); type: cell-based; details: Homo sapiens, HepG2, 24 h
Experimental: as §2

Li-TryR dimeric form [6] = biological target: T1, Li-TryR dimeric form; details: background, ChemBioChem, 2013, 14(10), 1212-1217; cited from earlier work

Sequence of recombinant Li-TryR (A4HSF7 entry or part of it): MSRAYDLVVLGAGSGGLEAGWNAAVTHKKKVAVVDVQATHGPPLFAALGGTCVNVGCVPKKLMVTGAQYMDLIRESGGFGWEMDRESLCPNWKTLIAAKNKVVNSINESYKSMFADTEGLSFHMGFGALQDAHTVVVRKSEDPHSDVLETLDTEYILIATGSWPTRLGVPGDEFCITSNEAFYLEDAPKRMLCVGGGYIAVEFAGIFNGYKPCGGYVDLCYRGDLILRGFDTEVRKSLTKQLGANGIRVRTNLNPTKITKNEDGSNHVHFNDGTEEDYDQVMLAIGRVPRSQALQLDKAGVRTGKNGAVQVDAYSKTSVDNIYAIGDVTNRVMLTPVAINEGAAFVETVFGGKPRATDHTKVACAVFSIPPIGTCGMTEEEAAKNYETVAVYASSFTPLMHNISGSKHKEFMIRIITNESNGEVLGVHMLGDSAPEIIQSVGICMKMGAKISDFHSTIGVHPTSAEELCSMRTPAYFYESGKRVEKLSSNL
T1 sequence (A4HSF7 entry or part of it): as above

| Compound | IC50 (recombinant Li-TryR) [µM] | EC50 [1] [µM] | EC50 [2] [µM] | IC50 (Li-TryR dimeric form [3]) [µM] | EC50 [4] [µM] | EC50 [5] [µM] | EC50 (HepG2 cells) [µM] | Li-TryR dimerization inhibition (Li-TryR dimeric form [6]) |
| --- | --- | --- | --- | --- | --- | --- | --- | --- |
| NCCCCc1cn(-c2ccc(-c3nc(CCc4ccc5ccccc5c4)cs3)c(OCCN3CCNC3=O)c2)nn1 [Compound 8g, 1-(2-(5-(4-(4-Aminobutyl)-1H-1,2,3-triazol-1-yl)-2-(4-(2-(naphthalen-2-yl)ethyl)thiazol-2-yl)phenoxy)ethyl)imidazolidin-2-one 2,2,2 trifluoroacetate] | 6.22 ± 1.01 | 31.2 ± 1.9 | 8.79 ± 0.75 | 11.2 ± 0.41 | 47.6 ± 3.3 | 23 ± 1.86 | 33.3 ± 2.7 |  |
| CC(C)(C)Cc1csc(-c2ccc(-n3cc(CCCCN)nn3)cc2OCCN2CCNC2=O)n1 [Compound 8b, 1-(2-(5-(4-(4-Aminobutyl)-1H-1,2,3-triazol-1-yl)-2-(4-neopentylthiazol-2-yl)phenoxy)ethyl)imidazolidin-2-one 2,2,2 trifluoroacetate] | 17.2 ± 1.69 | 30.2 ± 1.7 | 45 ± 3.51 | > 75 |  | 18.2 ± 0.4 |  |  |
| PKIIQSVGIS-Nle-K-Nle: 13-mer linear peptide derived from an α-helix spanning residues P435 to M447 of Li-TryR; prototype dimerization inhibitor (C-terminal Nle-K-Nle) |  |  |  |  |  |  |  | low micromolar range |
| C[n+]1nn(-c2ccc(-c3nc(CCc4ccc5c(c4)CCO5)cs3)c(OCCN3CCNC3=O)c2)cc1CCCCN [Compound 10d, 4-(4-Ammoniobutyl)-1-(4-(4-(2-(2,3-dihydrobenzofuran-5-yl)ethyl)thiazol-2-yl)-3-(2-(2-oxoimidazolidin-1-yl)ethoxy)phenyl)-3-methyl-1H-1,2,3-triazol-3-ium 2,2,2-trifluoroacetate trifluoromethanesulfonate] | 5.42 ± 0.23 |  | 47 ± 2.08 | > 75 | ≥ 75 | ≥ 75 | ≥ 75 |  |
| C[n+]1nn(-c2ccc(-c3nc(CCc4ccc(-c5ccccc5)cc4)cs3)c(OCCN3CCNC3=O)c2)cc1CCCCN [Compound 10e, 1-(4-(4-(2-([1,1'-Biphenyl]-4-yl)ethyl)thiazol-2-yl)-3-(2-(2-oxoimidazolidin-1-yl)ethoxy)phenyl)-4-(4-ammoniobutyl)-3-methyl-1H-1,2,3-triazol-3-ium 2,2,2-trifluoroacetate trifluoromethanesulfonate] | 5.19 ± 0.82 | 19.5 ± 1 | 18.7 ± 1.26 | 23.8 ± 0.96 | 21.6 ± 0.7 | 11.6 ± 1.14 | ≥ 75 |  |
| C[n+]1nn(-c2ccc(-c3nc(CCc4ccc5ccccc5c4)cs3)c(OCCN3CCNC3=O)c2)cc1CCCCN [Compound 10c, 4-(4-Ammoniobutyl)-3-methyl-1-(4-(4-(2-(naphthalen-2-yl)ethyl)thiazol-2-yl)-3-(2-(2-oxoimidazolidin-1-yl)ethoxy)phenyl)-1H-1,2,3-triazol-3-ium 2,2,2-trifluoroacetate trifluoromethanesulfonate] | 2.67 ± 0.13 |  | 17.9 ± 3.76 | 82.7 ± 2.4 | ≥ 75 | 12.9 ± 0.51 | ≥ 75 |  |
| PEIIQSVGIS-Nle-K-Nle: 13-mer linear peptide derived from an α-helix spanning residues P435 to M447 of Li-TryR; prototype dimerization inhibitor (C-terminal Nle-K-Nle) |  |  |  |  |  |  |  | low micromolar range |
| NCCCCc1cn(-c2ccc(-c3nc(CCc4ccccc4)cs3)c(OCCN3CCNC3=O)c2)nn1 [Compound 8e, 1-(2-(5-(4-(4-Aminobutyl)-1H-1,2,3-triazol-1-yl)-2-(4-phenethylthiazol-2-yl)phenoxy)ethyl)imidazolidin-2-one 2,2,2 trifluoroacetate] |  | 33.6 ± 1.5 | 30.54 ± 0.16 |  | 27.2 ± 1.2 | 13.9 ± 0.6 | 20.4 ± 2.37 |  |
